Reference: ChEMBL document CHEMBL4359892, “Discovery of novel indolylarylsulfones as potent HIV-1 NNRTIs via structure-guided scaffold morphing” (Eur J Med Chem, 2019)

What was measured:
[1] = Sub-acute toxicity in Kunming mouse assessed as heart damage at 50 mg/kg, po administered once every other day for 14 days measured on day 14 by HE-staining based assay; format: organism-based; details: in vivo, 336 h
[2] = Acute toxicity in Kunming mouse assessed as effect on clonic convulsion at 1000 mg/kg, ig administered as single dose and observed every day for 1 week; format: organism-based; details: in vivo, po, 168 h
[3] = Acute toxicity in Kunming mouse assessed as effect on ruffled fur at 1000 mg/kg, ig administered as single dose and observed every day for 1 week; format: organism-based; details: in vivo, po, 168 h
[4] = tested on: Human immunodeficiency virus 1; assay: Antiviral activity against drug resistant HIV-1 harboring reverse transcriptase Y181C mutant infected in human MT4 cells assessed as reduction in virus-induced cytopathic effect incubated for 5 days by MTT assay; format: functional, organism-based; details: Human immunodeficiency virus 1, MT4, 120 h
[5] = Acute toxicity in Kunming mouse assessed as effect on animal growth at 1000 mg/kg, ig administered as single dose and observed every day for 1 week; format: organism-based; details: in vivo, po, 168 h
[6] = Acute toxicity in Kunming mouse assessed as effect on animal death at 1000 mg/kg, ig administered as single dose and observed every day for 1 week; format: organism-based; details: in vivo, po, 168 h
[7] = tested on: Human immunodeficiency virus 1; assay: Antiviral activity against drug resistant HIV-1 harboring reverse transcriptase E138K mutant infected in human MT4 cells assessed as reduction in virus-induced cytopathic effect incubated for 5 days by MTT assay; format: functional, organism-based; details: Human immunodeficiency virus 1, MT4, 120 h
[8] = Acute toxicity in Kunming mouse assessed as effect on anorexia at 1000 mg/kg, ig administered as single dose and observed every day for 1 week; format: organism-based; details: in vivo, po, 168 h
[9] = Sub-acute toxicity in Kunming mouse assessed as increase in body weight at 50 mg/kg, po administered once every other day for 14 days; format: organism-based; details: in vivo, 336 h
[10] = Sub-acute toxicity in Kunming mouse assessed as liver damage at 50 mg/kg, po administered once every other day for 14 days measured on day 14 by HE-staining based assay; format: organism-based; details: in vivo, 336 h
[11] = Selectivity index, ratio of CC50 for human MT4 cells to EC50 for antiviral activity against HIV IIIB; format: toxicity; details: read-out: Ratio CC50/EC50
[12] = Sub-acute toxicity in Kunming mouse assessed as spleen damage at 50 mg/kg, po administered once every other day for 14 days measured on day 14 by HE-staining based assay; format: organism-based; details: in vivo, 336 h
[13] = Sub-acute toxicity in Kunming mouse assessed as effect on animal death at 50 mg/kg, po administered once every other day for 14 days; format: organism-based; details: in vivo, 336 h
[14] = tested on: Human immunodeficiency virus 1; assay: Antiviral activity against drug resistant HIV-1 harboring reverse transcriptase Y188L mutant infected in human MT4 cells assessed as reduction in virus-induced cytopathic effect incubated for 5 days by MTT assay; format: functional, organism-based; details: Human immunodeficiency virus 1, MT4, 120 h
[15] = tested on: Human immunodeficiency virus 1; assay: Antiviral activity against drug resistant HIV-1 RES056 harboring reverse transcriptase K103N/Y181C double mutant infected in human MT4 cells assessed as reduction in virus-induced cytopathic effect incubated for 5 days by MTT assay; format: functional, organism-based; details: Human immunodeficiency virus 1, RES056, MT4, 120 h
[16] = Sub-acute toxicity in Kunming mouse assessed as effect on lethargy at 50 mg/kg, po administered once every other day for 14 days; format: organism-based; details: in vivo, 336 h
[17] = Sub-acute toxicity in Kunming mouse assessed as effect on clonic convulsion at 50 mg/kg, po administered once every other day for 14 days; format: organism-based; details: in vivo, 336 h
[18] = tested on: Human immunodeficiency virus 1; assay: Antiviral activity against drug resistant HIV-1 harboring reverse transcriptase F227L/V106A double mutant infected in human MT4 cells assessed as reduction in virus-induced cytopathic effect incubated for 5 days by MTT assay; format: functional, organism-based; details: Human immunodeficiency virus 1, MT4, 120 h
[19] = Sub-acute toxicity in Kunming mouse assessed as effect on animal growth at 50 mg/kg, po administered once every other day for 14 days; format: organism-based; details: in vivo, 336 h
[20] = tested on: Human immunodeficiency virus 1; assay: Antiviral activity against HIV-1 3B infected in human MT4 cells assessed as reduction in virus-induced cytopathic effect incubated for 5 days by MTT assay; format: functional, organism-based; details: Human immunodeficiency virus 1, 3B, MT4, 120 h
[21] = Acute toxicity in Kunming mouse assessed as effect on body weight gain at 1000 mg/kg, ig administered as single dose and observed every day for 1 week; format: organism-based; details: in vivo, po, 168 h
[22] = Sub-acute toxicity in Kunming mouse assessed as lungs damage at 50 mg/kg, po administered once every other day for 14 days measured on day 14 by HE-staining based assay; format: organism-based; details: in vivo, 336 h
[23] = Sub-acute toxicity in Kunming mouse assessed as kidney damage at 50 mg/kg, po administered once every other day for 14 days measured on day 14 by HE-staining based assay; format: organism-based; details: in vivo, 336 h
[24] = Cytotoxicity against human MT4 cells assessed as reduction in cell viability incubated for 5 days by MTT assay; format: cell-based
[25] = Sub-acute toxicity in Kunming mouse assessed as effect on ruffled fur at 50 mg/kg, po administered once every other day for 14 days; format: organism-based; details: in vivo, 336 h
[26] = tested on: Human immunodeficiency virus 1; assay: Antiviral activity against drug resistant HIV-1 harboring reverse transcriptase L100I mutant infected in human MT4 cells assessed as reduction in virus-induced cytopathic effect incubated for 5 days by MTT assay; format: functional, organism-based; details: Human immunodeficiency virus 1, MT4, 120 h
[27] = tested on: Human immunodeficiency virus 1; assay: Antiviral activity against drug resistant HIV-1 harboring reverse transcriptase K103N mutant infected in human MT4 cells assessed as reduction in virus-induced cytopathic effect incubated for 5 days by MTT assay; format: functional, organism-based; details: Human immunodeficiency virus 1, MT4, 120 h
[28] = Acute toxicity in Kunming mouse assessed as effect on lethargy at 1000 mg/kg, ig administered as single dose and observed every day for 1 week; format: organism-based; details: in vivo, po, 168 h
[29] = Sub-acute toxicity in Kunming mouse assessed as effect on anorexia at 50 mg/kg, po administered once every other day for 14 days; format: organism-based; details: in vivo, 336 h
[30] = Selectivity index, ratio of CC50 for human MT4 cells to EC50 for antiviral activity against HIV RES056; format: toxicity; details: read-out: Ratio CC50/EC50

For Cc1cc(C)cc(S(=O)(=O)c2c(C(=O)N[C@H]3CCN(CC(N)=O)C3)[nH]c3ccc(Cl)cc23)c1, which Activity [1] is on record?
Its Activity is “Non-Toxic”.

And the Activity [2]?
The Activity was “Non-Toxic”.

What about the Activity [3] of the same compound?
Its Activity is “Non-Toxic”.

And the EC50 [4]?
Its EC50 is 0.096 µM.

And the Activity [5]?
The Activity was “Non-Toxic”.

What about the Activity [6] of the same compound?
The Activity was “Non-Toxic”.

What about the EC50 [7] of the same compound?
Its EC50 is 0.014 µM.

And the Activity [8]?
The Activity was “Non-Toxic”.

And the Activity [9]?
Its Activity is “Non-Toxic”.

What about the Activity [10] of the same compound?
Its Activity is “Non-Toxic”.

What about the selectivity ratio [11] of the same compound?
Its selectivity ratio is 2880.

And the Activity [12]?
Its Activity is “Non-Toxic”.

And the Activity [13]?
Its Activity is “Non-Toxic”.

And the EC50 [14]?
Its EC50 is 0.31 µM.

What about the EC50 [15] of the same compound?
The EC50 was over 28.1 µM.

And the Activity [16]?
Its Activity is “Non-Toxic”.

What about the Activity [17] of the same compound?
Its Activity is “Non-Toxic”.

And the EC50 [18]?
The EC50 was 0.094 µM.

What about the Activity [19] of the same compound?
Its Activity is “Non-Toxic”.

What about the EC50 [20] of the same compound?
The EC50 was 0.0098 µM.

What about the Activity [21] of the same compound?
Its Activity is “Non-Toxic”.

And the Activity [22]?
Its Activity is “Non-Toxic”.

What about the Activity [23] of the same compound?
The Activity was “Non-Toxic”.

What about the CC50 at 120 h [24] of the same compound?
Its CC50 at 120 h is 28.1 µM.

And the Activity [25]?
Its Activity is “Non-Toxic”.

What about the EC50 [26] of the same compound?
The EC50 was 0.011 µM.

What about the EC50 [27] of the same compound?
Its EC50 is 0.025 µM.

And the Activity [28]?
Its Activity is “Non-Toxic”.

What about the Activity [29] of the same compound?
Its Activity is “Non-Toxic”.

What about the selectivity ratio [30] of the same compound?
The selectivity ratio was under 1.
